Reference: ChEMBL document CHEMBL1201862, “PubChem BioAssay data set” (2004)
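Five compound concentrations were applied to cells in 96-well plates for 48 hours; endpoints were derived by simple linear interpolation of the resulting dose-response curve. GI50: concentration for 50% inhibition of growth.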 Active and inactive are the calls of the source. No stated cut-off is given here; in the data, active = GI50 up to about 1.1 µM and inactive = higher.

Assays:
Test in all cases: NCI-60 cell line screen, 48 h
[1] = test system: 786-0
[2] = test system: A498
[3] = test system: A549
[4] = test system: ACHN
[5] = test system: BT-549
[6] = test system: CAKI-1
[7] = test system: CCRF-CEM
[8] = test system: COLO 205
[9] = test system: DU-145
[10] = test system: EKVX
[11] = test system: HCC 2998
[12] = test system: HCT-116
[13] = test system: HCT-15
[14] = test system: HL-60
[15] = test system: HOP-62
[16] = test system: HOP-92
[17] = test system: Hs-578T
[18] = test system: IGROV-1
[19] = test system: K562
[20] = test system: KM12
[21] = test system: LOX IMVI
[22] = test system: M14
[23] = test system: MCF7
[24] = test system: MDA-MB-231
[25] = test system: MDA-MB-435
[26] = test system: MDA-N
[27] = test system: MOLT-4
[28] = test system: NCI-H226
[29] = test system: NCI-H23
[30] = test system: NCI-H460
[31] = test system: NCI-H522
[32] = test system: NCI/ADR-RES
[33] = test system: OVCAR-3
[34] = test system: OVCAR-5
[35] = test system: OVCAR-8
[36] = test system: PC-3
[37] = test system: RPMI-8226
[38] = test system: RXF 393
[39] = test system: SF-268
[40] = test system: SF-295
[41] = test system: SF-539
[42] = test system: SK-MEL-28
[43] = test system: SK-MEL-2
[44] = test system: SK-MEL-5
[45] = test system: SK-OV-3
[46] = test system: SN12C
[47] = test system: SNB-19
[48] = test system: SNB-75
[49] = test system: SW-620
[50] = test system: TK-10
[51] = test system: U-251
[52] = test system: UACC-257
[53] = test system: UACC-62
[54] = test system: UO-31
[55] = test system: HT-29
[56] = test system: Malme-3M
[57] = test system: OVCAR-4
[58] = test system: SR

O=P(O)(O)c1ccccc1Oc1ccccc1
GI50 [1]: > 100 µM (inactive)
GI50 [2]: 3.95 µM (inactive)
GI50 [3]: > 100 µM (inactive)
GI50 [4]: > 100 µM (inactive)
GI50 [5]: > 100 µM (inactive)
GI50 [6]: > 100 µM (inactive)
GI50 [7]: > 100 µM (inactive)
GI50 [8]: > 100 µM (inactive)
GI50 [9]: > 100 µM (inactive)
GI50 [10]: > 100 µM (inactive)
GI50 [11]: > 100 µM (inactive)
GI50 [12]: > 100 µM (inactive)
GI50 [13]: > 100 µM
GI50 [14]: > 100 µM (inactive)
GI50 [15]: > 100 µM (inactive)
GI50 [16]: > 100 µM (inactive)
GI50 [17]: > 100 µM (inactive)
GI50 [18]: > 100 µM (inactive)
GI50 [19]: > 100 µM (inactive)
GI50 [20]: > 100 µM (inactive)
GI50 [21]: > 100 µM (inactive)
GI50 [22]: > 100 µM (inactive)
GI50 [23]: > 100 µM (inactive)
GI50 [24]: > 100 µM (inactive)
GI50 [25]: > 100 µM (inactive)
GI50 [26]: > 100 µM (inactive)
GI50 [27]: > 100 µM (inactive)
GI50 [28]: > 100 µM (inactive)
GI50 [29]: > 100 µM (inactive)
GI50 [30]: > 100 µM (inactive)
GI50 [31]: > 100 µM (inactive)
GI50 [32]: > 100 µM (inactive)
GI50 [33]: > 100 µM (inactive)
GI50 [34]: > 100 µM (inactive)
GI50 [35]: > 100 µM (inactive)
GI50 [36]: > 100 µM (inactive)
GI50 [37]: > 100 µM (inactive)
GI50 [38]: > 100 µM (inactive)
GI50 [39]: > 100 µM (inactive)
GI50 [40]: > 100 µM (inactive)
GI50 [41]: > 100 µM (inactive)
GI50 [42]: > 100 µM (inactive)
GI50 [43]: > 100 µM (inactive)
GI50 [44]: > 100 µM (inactive)
GI50 [45]: > 100 µM (inactive)
GI50 [46]: > 100 µM (inactive)
GI50 [47]: > 100 µM (inactive)
GI50 [48]: 30.3 µM (inactive)
GI50 [49]: > 100 µM (inactive)
GI50 [50]: > 100 µM (inactive)
GI50 [51]: > 100 µM (inactive)
GI50 [52]: > 100 µM (inactive)
GI50 [53]: > 100 µM (inactive)
GI50 [54]: > 100 µM (inactive)

CC(C)n1c(=O)n(-c2ccccc2)n(C(C)(C)C)c1=O
GI50 [1]: > 100 µM (inactive)
GI50 [2]: > 100 µM (inactive)
GI50 [3]: > 100 µM (inactive)
GI50 [4]: > 100 µM (inactive)
GI50 [5]: > 100 µM (inactive)
GI50 [6]: > 100 µM (inactive)
GI50 [7]: > 100 µM (inactive)
GI50 [8]: > 100 µM (inactive)
GI50 [10]: > 100 µM (inactive)
GI50 [11]: > 100 µM (inactive)
GI50 [12]: > 100 µM (inactive)
GI50 [13]: > 100 µM
GI50 [14]: 47.4 µM (inactive)
GI50 [15]: > 100 µM (inactive)
GI50 [16]: > 100 µM (inactive)
GI50 [55]: > 100 µM (inactive)
GI50 [17]: > 100 µM (inactive)
GI50 [18]: > 100 µM (inactive)
GI50 [19]: > 100 µM (inactive)
GI50 [20]: > 100 µM (inactive)
GI50 [21]: > 100 µM (inactive)
GI50 [22]: > 100 µM (inactive)
GI50 [23]: > 100 µM (inactive)
GI50 [24]: > 100 µM (inactive)
GI50 [26]: > 100 µM (inactive)
GI50 [27]: > 100 µM (inactive)
GI50 [56]: > 100 µM (inactive)
GI50 [28]: > 100 µM (inactive)
GI50 [29]: 83.2 µM (inactive)
GI50 [30]: > 100 µM (inactive)
GI50 [32]: > 100 µM (inactive)
GI50 [33]: > 100 µM (inactive)
GI50 [57]: > 100 µM (inactive)
GI50 [34]: > 100 µM (inactive)
GI50 [35]: > 100 µM (inactive)
GI50 [36]: > 100 µM (inactive)
GI50 [38]: > 100 µM (inactive)
GI50 [40]: > 100 µM (inactive)
GI50 [41]: > 100 µM (inactive)
GI50 [42]: > 100 µM (inactive)
GI50 [43]: > 100 µM (inactive)
GI50 [44]: > 100 µM (inactive)
GI50 [45]: > 100 µM (inactive)
GI50 [46]: > 100 µM (inactive)
GI50 [47]: > 100 µM (inactive)
GI50 [48]: > 100 µM (inactive)
GI50 [58]: 58.5 µM (inactive)
GI50 [49]: > 100 µM (inactive)
GI50 [50]: > 100 µM (inactive)
GI50 [51]: > 100 µM (inactive)
GI50 [52]: > 100 µM (inactive)
GI50 [53]: > 100 µM (inactive)
GI50 [54]: > 100 µM (inactive)
